Results: patent US6444668B1 (Wyeth, priority 1999, dated 2002)

Tests used:
[1] = test system: rat uterine decidualization; assay: Rat decidualization assay; assay type: in vivo; conditions: dose 3 mg/kg
Description: 1. Rat Decidualization Assay
b. Animals (RACUC Protocol #5002)
The animals are treated once daily for seven days.
Uteri are removed and trimmed of fat.
Body weight: Mean total animal body weight (default-kg)
Decidual response: [(D-C)/C]x100%

human PR = molecular target: T1, human PR (Homo sapiens, UniProt P06401); assay: PRE-luciferase assay in CV-1 cells; assay type: cell-based; conditions: PR antagonist; CV-1 cells co-transfected with human PR and PRE-luciferase; in the presence of 3 nM progesterone; read-out: hPR CV-1 IC50
T1 construct: expressed in transfected cells; host or cells: CV-1 cells (electroporation)
T1 sequence (P06401 1-933): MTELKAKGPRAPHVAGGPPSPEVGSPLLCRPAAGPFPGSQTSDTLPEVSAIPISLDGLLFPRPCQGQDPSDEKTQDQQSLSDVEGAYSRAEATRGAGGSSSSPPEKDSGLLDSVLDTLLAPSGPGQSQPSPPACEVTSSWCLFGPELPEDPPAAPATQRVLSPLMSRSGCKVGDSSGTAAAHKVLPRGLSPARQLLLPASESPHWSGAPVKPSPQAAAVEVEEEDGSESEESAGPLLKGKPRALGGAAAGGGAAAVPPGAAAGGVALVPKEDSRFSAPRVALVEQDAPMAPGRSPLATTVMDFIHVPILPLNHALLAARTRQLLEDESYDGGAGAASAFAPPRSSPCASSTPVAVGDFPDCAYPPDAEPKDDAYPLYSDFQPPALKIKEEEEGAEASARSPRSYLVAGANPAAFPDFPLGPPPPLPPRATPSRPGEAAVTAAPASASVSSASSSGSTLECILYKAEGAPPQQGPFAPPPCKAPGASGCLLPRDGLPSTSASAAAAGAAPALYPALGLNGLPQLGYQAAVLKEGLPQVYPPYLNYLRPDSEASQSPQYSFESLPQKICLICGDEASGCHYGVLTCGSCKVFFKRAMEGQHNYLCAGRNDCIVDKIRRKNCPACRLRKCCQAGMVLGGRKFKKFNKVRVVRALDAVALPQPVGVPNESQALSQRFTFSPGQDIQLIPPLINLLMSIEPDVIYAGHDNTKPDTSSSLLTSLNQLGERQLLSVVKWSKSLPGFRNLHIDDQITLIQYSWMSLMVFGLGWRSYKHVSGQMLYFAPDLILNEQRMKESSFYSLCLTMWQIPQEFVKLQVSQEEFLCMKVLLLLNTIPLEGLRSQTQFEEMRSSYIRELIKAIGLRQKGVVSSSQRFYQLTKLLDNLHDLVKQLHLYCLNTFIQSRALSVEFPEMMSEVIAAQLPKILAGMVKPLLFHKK
Description: 2. PRE-luciferase Assay in CV-1 to Cells
The object of this assay is to determine a compound's progestational or antiprogestational potency based on its effect on PRE-luciferase reporter activity in CV-1 cells co-transfected with human PR and PRE-luciferase plasmids. The materials methods used in the assay are as follows.
The growth medium was as follows: DMEM (BioWhittaker) containing 10% (v/v) fetal bovine serum (heat inactivated), 0.1 mM MEM non-essential amino acids, 100U/ml penicillin, […] streptomycin, and 2 mM GlutaMax (GIBCO, BRL). The experimental medium was as follows: DMEM (BioWhittaker), phenol red-free, containing 10% (v/v) charcoal-stripped fetal bovine serum (heat-inactivated), 0.1 mM MEM non-essential amino acids, 100U/ml penicillin […] streptomycin, and 2 mM GlutaMax (GIBCO, BRL).
b. Cell Culture, Transfection, Treatment, and Luciferase Assay
Stock CV-1 cells are maintained in growth medium Co-transfection is done using 1.2×10^7 cells, 5 mg pLEM plasmid with hPR-B inserted at Sph1 and BamH1 sites, 10 mg pGL3 plasmid with two PREs upstream of the luciferase sequence, and 50 mg sonicated calf thymus DNA as carrier DNA in […]. […] Luciferase activity is measured using luciferase reagents from Promega.
Each treatment consists of at least 4 replicates. […] EC50 or IC50 values are calculated from the retransformed values.

CC1(C)OC(=O)Nc2ccc(-c3coc(C#N)c3)cc21 [Compound 7, 4-(44-Dimethyl-2-oxo-1,4-dihydro-2H-benzo[d][1,3]oxazin-6-yl)-furan-2-carbonitrile]
Decidualization, percentage inhibition at the dose specified [1]: 75% @ 3
IC50 (human PR): 30 nM
